One assay is described as follows: The compound was tested for the inhibition of Arachidonate 5-lipoxygenase purified from porcine leukocytes.
In general, IC50 refers to the concentration that gives 50% inhibition. High values mean a need for much substance, low ones inhibition by little substance. Compound `CCCCCCCCCCCCCCc1c(-c2ccc(O)c(O)c2)oc2c(OC)c(OC)cc(O)c2c1=O` showed an IC50 of 500 nM. In turn, `CCCCCCCCCCCCc1c(-c2ccc(O)c(O)c2)oc2c(OC)c(OC)cc(O)c2c1=O` registered an IC50 of 340 nM.

`CCCCCCCCCCCCc1c(-c2ccc(O)c(O)c2)oc2cc(OC)c(OC)c(OC)c2c1=O` registered an IC50 of 175 nM. For the compound `CCCCCCCCCCCCCCc1c(-c2ccc(O)c(O)c2)oc2cc(OC)c(OC)c(OC)c2c1=O`, inhibition was half-maximal at 240 nM (IC50). On to `CCCCCCCCc1c(-c2ccc(O)c(O)c2)oc2cc(OC)c(OC)c(OC)c2c1=O`, for which the IC50 came out at 250 nM. Compound `CCCCCCCCCCCCc1c(-c2ccc(O)c(O)c2)oc2cc(OC)c(OC)c(=O)c-2c1O` yielded a half-inhibitory concentration (IC50) of 210 nM. As for `CCCCCCCCCCc1c(-c2ccc(O)c(O)c2)oc2cc(OC)c(OC)c(OC)c2c1=O`, 190 nM corresponded to half-maximal inhibition (IC50).

The next assay can be described thus: Inhibition of arachidonate 5-lipoxygenase purified from porcine leukocytes.
`CCCCCCCCCCCCCCCCc1c(-c2ccc(O)c(O)c2)oc2cc(OC)c(OC)c(OC)c2c1=O` showed an IC50 of 950 nM. Consider `CCCCCCOc1c(OC)c(OC)cc2oc(-c3ccc(O)c(O)c3)c(OC)c(=O)c12`, for which the IC50 was 280 nM. `COc1cc2oc(-c3ccc(O)c(O)c3)c(C)c(=O)c2c(O)c1OC` displayed an IC50 of 480 nM.

For the compound `CCCCCCOc1c(-c2ccc(O)c(O)c2)oc2c(OC)c(OC)cc(OC)c2c1=O`, the IC50 worked out at 88 nM. In turn, `CCCCCCCCCCc1c(-c2ccc(O)c(O)c2)oc2c(OC)c(OC)cc(O)c2c1=O` came in with an IC50 of 135 nM. As to `CCCCc1c(-c2ccc(O)c(O)c2)oc2c(OC)c(OC)cc(OC)c2c1=O`, the IC50 turned out to be 100 nM. Same read-out and setting: with `CCCCCCCCCCCCCCCCc1c(-c2ccc(O)c(O)c2)oc2cc(OC)c(OC)c(=O)c-2c1O` the figure was 1250 nM.

The compound `CCCCCCc1c(-c2ccc(O)c(O)c2)oc2cc(OC)c(OC)c(=O)c-2c1O` registered an IC50 of 110 nM. Compound `CCCCCCOc1cc(OC)c(OC)c2oc(-c3ccc(O)c(O)c3)c(O)c(=O)c12` came in with a half-inhibitory concentration (IC50) of 770 nM. On to `CCCCCCCCCCCCCCc1c(-c2ccc(O)c(O)c2)oc2c(OC)c(OC)cc(OC)c2c1=O`, for which 115 nM corresponded to half-maximal inhibition (IC50). The compound `CCCCCCOc1c(OC)c(OC)cc2oc(-c3ccc(O)c(O)c3)c(O)c(=O)c12` gave an IC50 of 1350 nM. As for `CCCCCCOc1c(-c2ccc(O)c(O)c2)oc2cc(OC)c(OC)c(OC)c2c1=O`, the IC50 came to 126 nM. In turn, `CCCCCCCCCCCCc1c(-c2ccc(O)c(O)c2)oc2c(OC)c(OC)cc(OC)c2c1=O` displayed a 50% inhibitory concentration (IC50) of 105 nM.

Consider `COc1cc(O)c2c(=O)c(C)c(-c3ccc(O)c(O)c3)oc2c1OC`, for which the IC50 amounted to 300 nM. `CCCCc1c(-c2ccc(O)c(O)c2)oc2cc(OC)c(OC)c(=O)c-2c1O` registered a half-inhibitory concentration (IC50) of 265 nM. `CCCCCCc1c(-c2ccc(O)c(O)c2)oc2c(OC)c(OC)cc(OC)c2c1=O` registered an IC50 of 58 nM. As for `CCCCCCCCc1c(-c2ccc(O)c(O)c2)oc2c(OC)c(OC)cc(OC)c2c1=O`, the IC50 is 62 nM.

For `CCCCCCCCCCCCCCc1c(-c2ccc(O)c(O)c2)oc2cc(OC)c(OC)c(=O)c-2c1O`, inhibition was half-maximal at 870 nM (IC50). `CCCCCCCCCCCCCCCCc1c(-c2ccc(O)c(O)c2)oc2c(OC)c(OC)cc(O)c2c1=O` gave an IC50 of 1500 nM. Same read-out and setting: the result for `CCCCCCCCCCc1c(-c2ccc(O)c(O)c2)oc2c(OC)c(OC)cc(OC)c2c1=O` reads 86 nM; that for `CCCCCCCCCCCCCCCCc1c(-c2ccc(O)c(O)c2)oc2c(OC)c(OC)cc(OC)c2c1=O`, 500 nM.
